Assay results published in US20230406849A1, “KRAS INHIBITORS FOR TREATMENT OF CANCERS” (TYLIGAND BIOSCIENCE (SHANGHAI) LIMITED, priority 2020, published 2023).
Read-outs that look alike come from different tables or passages of the source.

How the values were obtained:
[1] = Cassette pharmacokinetic experiment in rats (IV); type: in vivo; conditions: rat, plasma, 1 mg/kg, male SD rats, tail vein IV, 1 mg/mL each compound at 1 mL/kg
Text: 2.1 Pharmacokinetic Properties of Some Compounds of the Present Disclosure Evaluated by Cassette Pharmacokinetic Experiments in Rats.
[Test materials]: Male SD rats, age: 6-8 weeks, body weight 220-250 g, purchased from Zhaoyan (Suzhou) New Drug Research Center Co., Ltd.; Tolbutamide (Aladdin, Cat #H1401054); Sulfobutyl-(Captisol, Shandong Binzhou Zhiyuan Biological Technology Co., Ltd, Cat #20191013); Propylene glycol (15)-stearate (Solutol, Meilun Bio, Cat #50206A); DMSO (Vetec Company, Cat #WXBD0293V); acetonitrile (Sigma-Aldrich, Cat #WXBD1744V); Methanol (Sigma-Aldrich, Cat #WXBD2831V).
[Experimental procedure]: The compound combination was prepared in a solvent of 5% DMSO/10% Solutol/85% (20% Captisol), and the final concentration of each compound was 1 mg/mL. The SD rats were treated with the compound preparation in 1 mL/kg by tail vein IV injection, and blood samples were collected at the time points of 5 min, 15 min, 30 min, 1 h, 2 h, 4 h, 8 h, and 24 h via external jugular vein puncture, centrifuged at low temperature for 20 minutes to collect plasma samples, which were stored at −80° C. until analysis.
[Sample analysis]: Establishing LC-MS/MS compound analysis method
Standard curve preparation: 20 μL of lmg/mL DMSO stock solution for each compound was aspirated and transferred to […] of 50% methanol working solution, and the resulting solution was serially diluted to obtain a standard curve working solution with concentrations of 20000, 10000, 5000, 1000, 500, 100, 50, 20 and […]. Then 5 µL of this standard curve working solution was mixed with 45 μL rat blank plasma to give a standard curve with concentrations of 2000, 1000, 500, 100, 50, 10, 2 and 1 ng/mL for quantification of unknown samples.
Sample pretreatment: 50 μL of unknown plasma sample or standard curve sample was mixed with 250 μL of acetonitrile containing internal standard as a precipitant. The plasma protein was precipitated, extracted for test compounds, and centrifuged at low temperature for 20 minutes. The supernatant was taken, mixed with 0.1% formic acid aqueous solution, and 5 μL of the resulting solution was aspirated for blood concentration analysis.
[Data processing]: A standard curve was plotted using mass spectrometry software, to quantify unknown samples, and pharmacokinetic parameters are calculated by Winnonlin 8.2 using the drug concentration of unknown samples at each time point.

[2] = test system: human non-small cell lung cancer NCI-H358 xenograft; test: Antitumor activity in NCI-H358 xenograft mouse model; type: in vivo, NPSG mice; conditions: for TGI(%) / Tumor volume (mm^3) (day 14): NPSG mice, gavage once daily 10 mg/kg, day 14
Procedure: Tumor growth inhibitory activity of the compounds of the present disclosure was evaluated and verified in a human non-small cell lung cancer NCI-H358 xenograft mouse model.
[Test materials]: NCI-H358 cell line carrying KRAS G12C mutation, provided by KYinno Biotechnology Co., Ltd. (from ATCC, Cat #CRL-5807). NPSG mice, female, provided by Beijing Phenotek Biotechnologies Inc.
[Experimental procedure]: 5×10^6 NCI-H358 cells (containing 50% Matrigel) were inoculated subcutaneously on the right flank of 6-8 weeks old female NPSG mice, with the inoculation volume of 0.1 mL. When the average tumor size reached 160-220 mm^3, the mice were grouped randomly according to tumor size and body weight, upon which the mice were treated with compounds on the same day designated as Day 0. The mice were gavage administrated once daily at 10 mg/kg or solvent control (50 mM citrate buffer containing 10% cyclodextrin, pH5.0). Tumor volume and body weight were measured twice a week during the study. The tumor volume was calculated by the formula V=D×d×d/2, wherein D and d refer to the long and short diameter of the tumor respectively.
In addition, using the same materials and procedures as above, the tumor inhibition activity of Example 9 at different doses in the above-mentioned non-small cell lung cancer mouse model and its effect on body weight were also investigated.

[3] = test system: human non-small cell lung cancer cells NCI-H358 with KRas G12C mutation; test: NCI-H358 cell proliferation, CellTiter-Glo Luminescent Cell Viability Assay; type: cell-based; conditions: for inhibition at 1 µM: 1 μM compound, read-out: Inhibition rate % (1 μM)
Text: This assay verified the inhibitory activity of the compounds of the present disclosure on the proliferation of human non-small cell lung cancer cells NCI-H358 with KRas G12C mutation by using Promega's CellTiter-Glo® Luminescent Cell Viability Assay kit.
[Test materials]: NCI-H358 cell line (Cell Resource Center, IBMS, CAMS/PUMC, Item number: 3111C0001CCC000470), 96-well transparent flat-bottomed black-walled cell culture plate (Greiner Bio one, Cat #655096), RPMI-1640 Medium (GE, Cat #SH30809.01), Fetal Bovine Serum FBS (Thermo Fisher, Cat #10099-141), CellTiter-Glo® Luminescent Cell Viability Assay Kit (Promega, Cat #G7573), PBS (Solarbio, Cat #P1020), Trypsin (Thermo Fisher, Cat #25200072), DMSO (Sigma, Cat #D2650), Methyl cellulose (SIGMA, Cat #9004-67-5).
[Experimental procedure]: 180 μL of cell suspension (RPMI1640 solution with 10% FBS and 1% methyl cellulose) was charged to a 96-well cell culture plate at a density of 1500 cells/well. A control group containing no cells, no compounds and only 3D complete medium (RPMI 1640 solution with 1! Methyl cellulose and 10% FBS) (i.e. culture medium control) and a control group containing no compounds but cells (i.e. cell control) were set. AMG510 or the following reference compounds were used as positive controls. The cell plate was placed in a cell incubator overnight. A 10-fold drug solution (RPMI1640 solution with 10% FBS and 1% DMSO) was prepared at a concentration of 10 μM, and 20 μL of this solution was added to each well of the 96-well plate seeded with cells, so that the final concentration of the compounds in each well was 1 μM, and the DMSO concentration […] replicate wells were set up for each compound. The solutions of AMG510 or the following reference compounds were prepared in the same way and added to the positive control wells. The cell plate was placed in a cell incubator and cultured for 120 h. For endpoint detection, the CellTiter-Glo reagent was melted, and the cell plate was moved to room temperature to equilibrate for 30 minutes, added with 100 µL of CellTiter-Glo to each well, and shaken on an orbital shaker for 5 minutes to fully lyse the cells. The plate was kept at room temperature for 20 minutes to stabilize the luminescence signal, and the luminescence value of each well was full wavelength scanned with a multi-functional microplate reader (Molecular Devices, Spectramax M3 microplate reader).
[Test samples] The compounds of Examples 1-39, and reference compound A
[Data Analysis] The following formula was used to calculate the cell inhibition rate under the action of each concentration of the compounds:
Inhibition rate %=[1−(LumDrug to be tested−LumCulture medium control)/(LumCell control−LUMCulture medium control)]×100%
IC50 values were calculated using GraphPad Prism 7.0 software, nonlinear Sigmoidal regression was used to fit the data to obtain a dose-response curve.

Row | AUC(0-t) [1] | clearance [1] | half-life [1] | IC50 ([3]; 120 h, read-out: IC50) | IC50 ([3]; read-out: IC50 value) | Compound | TGI(%) [2] | Tumor volume (mm^3) (day 14) [2] | inhibition at 1 µM ([3]; 120 h) | effect on body weight ([2]; different doses, FIG. 1) | tumor inhibition activity ([2]; different doses, FIG. 1)
1 | 231 ng·h/mL | 71.8 mL/min/kg | 29.4 min | – | – | C=CC(=O)N1CCN(c2nc(=O)n(-c3c(C)ccnc3C(C)C)c3nc(-c4c(O)cccc4F)c(F)cc23)[C@@H](C)C1 (atropisomer, axis not shown) [AMG510, reference compound] | 66% | 525.1 mm^3 | – | – | –
2 | 1050 ng·h/mL | 15.8 mL/min/kg | 40.2 min | 8.6 nM | < 20 nM | C=CC(=O)N1CCN(c2c(C#N)cnc3c(F)c(-c4ccc(F)c5sc(N)nc45)c(Cl)cc23)CC1 [Example 9, 4-(4-Acryloylpiperazin-1-yl)-7-(2-amino-7-fluorobenzo[d]thiazol-4-yl)-6-chloro-8-fluoroquinoline-3-carbonitrile] | – | – | 98.8% | without significant side effects on body weight | excellent tumor inhibition activity
3 | – | – | – | 18 nM | < 20 nM | C=CC(=O)N1CCN(c2c(C#N)cnc3c(F)c(-c4ccc(F)c5sc(N)nc45)c(Cl)cc23)C[C@H]1C [Example 8, 4-((R)-4-acryloyl-3-methylpiperazin-1-yl)-7-(2-amino-7-fluorobenzo[d]thiazol-4-yl)-6-chloro-8-fluoroquinoline-3-carbonitrile] | 67% | 519.2 mm^3 | 94% | – | –
4 | 623 ng·h/mL | 27.1 mL/min/kg | 60 min | 11 nM | – | C=CC(=O)N1CCN(c2ncnc3c(F)c(-c4ccc(F)c5sc(N)nc45)c(Cl)cc23)CC1 [Ref. Comp. A, reference compound] | – | – | 96.9% | – | –
